Common to all, as to test: microtitration dilution method, in vitro antibacterial activity (MIC)
Holding throughout (format): cell-based

The test system of experiment [1] is Streptococcus pyogenes C-203. The following applies: C203, read-out: Minimal Inhibitory Concentration MIC. An excerpt: (§1) The compounds of the invention display antibacterial activity when tested by the microtitration dilution method as described in Heifetz, et al, Antimicr. Agents & Chemoth., 6, 124 (1974), which is incorporated herein by reference.
(§2) By use of the above referenced method, the following minimum inhibitory concentration values (MICs in μg/ml) were obtained for representative compounds of the invention.

The subject of experiment [2] is Klebsiella pneumoniae MGH-2. The following applies: MGH2, read-out: Minimal Inhibitory Concentration MIC.
Excerpt: as §1, §2

The next experiment deals with Escherichia coli Vogel. The following applies: read-out: Minimal Inhibitory Concentration MIC.
Excerpt: as §1, §2

Experiment [3] has as its system Pseudomonas aeruginosa UI-18. The following applies: UI18, read-out: Minimal Inhibitory Concentration MIC.
Excerpt: as §1, §2

For experiment [4], the system named is Streptococcus faecalis MGH-2. The settings on record: Enterococcus faecalis, MGH2, read-out: Minimal Inhibitory Concentration MIC.
Excerpt: as §1, §2

For experiment [5], the system named is Streptococcus pneumoniae SV-1. The settings on record: SV1, read-out: Minimal Inhibitory Concentration MIC.
Excerpt: as §1, §2

A further experiment relates to Proteus rettgeri M 1771. The following applies: Providencia rettgeri, M1771, read-out: Minimal Inhibitory Concentration MIC.
Excerpt: as §1, §2

Experiment [6] deals with Staphlococcus aureus H 228. The settings on record: read-out: Minimal Inhibitory Concentration MIC.
Excerpt: as §1, §2

For experiment [7], the system named is Staphylococcus aureus UC-76. The following applies: UC76, read-out: Minimal Inhibitory Concentration MIC.
Excerpt: as §1, §2

For experiment [8], the system named is Enterobacter cloacae MA 2646. The following applies: MA2646, read-out: Minimal Inhibitory Concentration MIC.
Excerpt: as §1, §2

≈ marks a conversion by molar mass, not a printed value.

`CCn1cc(C(=O)O)c(=O)c2c(F)c(F)c(N3CCC(CN)C3)c(F)c21` (centres unmarked) [Ex. 1A, 7-[3-(Aminomethyl)-1-pyrrolidinyl]-1-ethyl-5,6,8-trifluoro-1,4-dihydro-4-oxo-3-quinolinecarboxylic acid]: the MIC in experiment [1] was at most 0.1 µg/mL; in experiment [2], 0.8 µg/mL (≈ 2.17 µM); in the experiment with Escherichia coli Vogel it was 0.8 µg/mL (≈ 2.17 µM); in experiment [3], 3.1 µg/mL (≈ 8.39 µM); in [4], 0.8 µg/mL (≈ 2.17 µM); in experiment [5], at most 0.1 µg/mL. Also, the MIC in the experiment on Proteus rettgeri M 1771 is 3.1 µg/mL (≈ 8.39 µM); in experiment [6], 1.6 µg/mL (≈ 4.33 µM); in [7], 0.8 µg/mL (≈ 2.17 µM); in experiment [8], 0.8 µg/mL (≈ 2.17 µM).
Turning to `CCn1cc(C(=O)O)c(=O)c2c(F)c(F)c(N3CCC4(CCN(C)C4)C3)c(F)c21` (centres unmarked) [Ex. 1B, 1-Ethyl-5,6,8-trifluoro-1,4-dihydro-7-(7-methyl-2,7-diazaspiro[4.4]nonan-2-yl)-4-oxo-3-quinolinecarboxylic acid], the MIC in experiment [1] was 1.6 µg/mL (≈ 3.91 µM); in experiment [2], 1.6 µg/mL (≈ 3.91 µM); in the experiment on Escherichia coli Vogel, 0.8 µg/mL (≈ 1.95 µM); in [3], 6.3 µg/mL (≈ 15.4 µM); in experiment [4], 1.6 µg/mL (≈ 3.91 µM); in experiment [5], 0.8 µg/mL (≈ 1.95 µM). The MIC is 6.3 µg/mL (≈ 15.4 µM) in the experiment with Proteus rettgeri M 1771, 0.8 µg/mL (≈ 1.95 µM) in experiment [6], 0.2 µg/mL (≈ 0.489 µM) in [7] and 0.8 µg/mL (≈ 1.95 µM) in [8].
Consider `CCn1cc(C(=O)O)c(=O)c2c(F)c(F)c(N3CCC(CNC)C3)c(F)c21` (centres unmarked) [Ex. 1C, 1-Ethyl-5,6,8-trifluoro-1,4-dihydro-7-[3-[(methylamino)methyl]-1-pyrrolidinyl]-4-oxo-3-quinolinecarboxylic acid], for which the MIC in experiment [1] is 0.2 µg/mL (≈ 0.522 µM); in experiment [2], 0.8 µg/mL (≈ 2.09 µM); in the experiment on Escherichia coli Vogel, 0.4 µg/mL (≈ 1.04 µM); in experiment [3], 3.1 µg/mL (≈ 8.09 µM); in [4] it was 0.8 µg/mL (≈ 2.09 µM); in [5], 0.4 µg/mL (≈ 1.04 µM). For the same molecule, the MIC in the experiment with Proteus rettgeri M 1771 came out at 6.3 µg/mL (≈ 16.4 µM); in [6] it was 0.8 µg/mL (≈ 2.09 µM); in experiment [7], 0.05 µg/mL (≈ 0.13 µM); in [8] it was 1.6 µg/mL (≈ 4.17 µM).
Regarding `CCNCC1CCN(c2c(F)c(F)c3c(=O)c(C(=O)O)cn(CC)c3c2F)C1` (centres unmarked) [Ex. 1D, 1-Ethyl-7-[3-[(ethylamino)methyl]-1-pyrrolidinyl]-5,6,8-trifluoro-1,4-dihydro-4-oxo-3-quinolinecarboxylic acid], the MIC in experiment [1] worked out at 0.2 µg/mL (≈ 0.503 µM); in experiment [2], 0.8 µg/mL (≈ 2.01 µM); in the experiment with Escherichia coli Vogel it was 0.4 µg/mL (≈ 1.01 µM); in [3], 6.3 µg/mL (≈ 15.9 µM); in experiment [4] it was 0.2 µg/mL (≈ 0.503 µM); in [5] it was 0.2 µg/mL (≈ 0.503 µM). Moreover, the MIC with Proteus rettgeri M 1771 amounted to 0.8 µg/mL (≈ 2.01 µM); in experiment [6], 0.4 µg/mL (≈ 1.01 µM); in experiment [7], 0.013 µg/mL (≈ 0.0327 µM); in experiment [8], 0.4 µg/mL (≈ 1.01 µM).
With `CCNCC1CCN(c2c(F)c(F)c3c(=O)c(C(=O)O)cn(C4CC4)c3c2F)C1` (centres unmarked) [Ex. 2A, 1-Cyclopropyl-7-[3-[(ethylamino)methyl]-1-pyrrolidinyl]-5,6,8-trifluoro-1,4-dihydro-4-oxo-3-quinolinecarboxylic acid], the MIC came out at 0.1 µg/mL (≈ 0.244 µM) in experiment [1]; 0.4 µg/mL (≈ 0.977 µM) in experiment [2]; 0.2 µg/mL (≈ 0.489 µM) with Escherichia coli Vogel; 3.1 µg/mL (≈ 7.57 µM) in [3]; 0.2 µg/mL (≈ 0.489 µM) in experiment [4]; 0.2 µg/mL (≈ 0.489 µM) in [5]. Besides, the MIC was found to be 1.6 µg/mL (≈ 3.91 µM) with Proteus rettgeri M 1771, 0.2 µg/mL (≈ 0.489 µM) in [6], 0.025 µg/mL (≈ 0.0611 µM) in experiment [7] and 0.4 µg/mL (≈ 0.977 µM) in experiment [8].
